Measured values taken from article PMC3961306, “Comparison of the Cancer Gene Targeting and Biochemical Selectivities of All Targeted Kinase Inhibitors Approved for Clinical Use” (PLoS ONE, 2014).
pIC50: −log10 of the molar value. Where two headings read alike, the source gives them in different places.

Tests used:
[1] = molecular target: panel of more than 300 wild-type and mutant kinases (313 kinase panel) (Homo sapiens, UniProt Q9HC98); experiment: Kinase profiling in a biochemical assay panel (mobility shift assays and ELISA), %-inhibition at 1 μM; selectivity entropy; conditions: kinase NEK6; 1 μM
[2] = molecular target: panel of more than 300 wild-type and mutant kinases (313 kinase panel) (Homo sapiens, UniProt P10721, T670I); experiment: as above; conditions: kinase KIT(T670I); compound at 1 μM
Sequence of panel of more than 300 wild-type and mutant kinases (313 kinase panel) (Homo sapiens, UniProt P10721, T670I) (P10721 26-976 T670I): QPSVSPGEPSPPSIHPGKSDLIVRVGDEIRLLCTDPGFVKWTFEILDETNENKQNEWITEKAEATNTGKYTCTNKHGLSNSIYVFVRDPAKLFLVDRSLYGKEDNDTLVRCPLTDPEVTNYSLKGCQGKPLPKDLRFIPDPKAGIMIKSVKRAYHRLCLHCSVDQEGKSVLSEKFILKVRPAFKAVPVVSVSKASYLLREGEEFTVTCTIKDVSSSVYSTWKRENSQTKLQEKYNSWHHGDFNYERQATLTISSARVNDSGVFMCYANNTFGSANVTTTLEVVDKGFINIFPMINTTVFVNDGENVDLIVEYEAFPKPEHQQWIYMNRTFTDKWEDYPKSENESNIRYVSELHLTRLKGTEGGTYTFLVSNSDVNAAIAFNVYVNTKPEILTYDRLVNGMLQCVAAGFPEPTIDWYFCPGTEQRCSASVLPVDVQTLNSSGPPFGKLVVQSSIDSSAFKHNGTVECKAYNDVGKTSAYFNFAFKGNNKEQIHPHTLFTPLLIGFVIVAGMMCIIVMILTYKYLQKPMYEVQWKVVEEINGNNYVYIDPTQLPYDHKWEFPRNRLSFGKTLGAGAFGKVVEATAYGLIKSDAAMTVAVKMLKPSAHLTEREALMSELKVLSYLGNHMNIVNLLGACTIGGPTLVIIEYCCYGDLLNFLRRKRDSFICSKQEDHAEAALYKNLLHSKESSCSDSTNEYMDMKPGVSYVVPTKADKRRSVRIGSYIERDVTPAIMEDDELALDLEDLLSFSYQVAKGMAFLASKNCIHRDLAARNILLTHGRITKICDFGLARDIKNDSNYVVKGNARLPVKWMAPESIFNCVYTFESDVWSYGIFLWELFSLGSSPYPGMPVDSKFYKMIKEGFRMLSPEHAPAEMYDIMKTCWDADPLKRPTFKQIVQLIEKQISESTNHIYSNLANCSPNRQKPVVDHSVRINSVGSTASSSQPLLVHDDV

[3] = molecular target: panel of more than 300 wild-type and mutant kinases (313 kinase panel) (Homo sapiens, UniProt Q04912); experiment: as above; conditions: kinase RON; 1 μM
[4] = molecular target: panel of more than 300 wild-type and mutant kinases (313 kinase panel) (Homo sapiens, UniProt P00519, E255K); experiment: as above; conditions: kinase ABL(E255K); 1 μM compound
Sequence of panel of more than 300 wild-type and mutant kinases (313 kinase panel) (Homo sapiens, UniProt P00519, E255K) (P00519 whole entry E255K): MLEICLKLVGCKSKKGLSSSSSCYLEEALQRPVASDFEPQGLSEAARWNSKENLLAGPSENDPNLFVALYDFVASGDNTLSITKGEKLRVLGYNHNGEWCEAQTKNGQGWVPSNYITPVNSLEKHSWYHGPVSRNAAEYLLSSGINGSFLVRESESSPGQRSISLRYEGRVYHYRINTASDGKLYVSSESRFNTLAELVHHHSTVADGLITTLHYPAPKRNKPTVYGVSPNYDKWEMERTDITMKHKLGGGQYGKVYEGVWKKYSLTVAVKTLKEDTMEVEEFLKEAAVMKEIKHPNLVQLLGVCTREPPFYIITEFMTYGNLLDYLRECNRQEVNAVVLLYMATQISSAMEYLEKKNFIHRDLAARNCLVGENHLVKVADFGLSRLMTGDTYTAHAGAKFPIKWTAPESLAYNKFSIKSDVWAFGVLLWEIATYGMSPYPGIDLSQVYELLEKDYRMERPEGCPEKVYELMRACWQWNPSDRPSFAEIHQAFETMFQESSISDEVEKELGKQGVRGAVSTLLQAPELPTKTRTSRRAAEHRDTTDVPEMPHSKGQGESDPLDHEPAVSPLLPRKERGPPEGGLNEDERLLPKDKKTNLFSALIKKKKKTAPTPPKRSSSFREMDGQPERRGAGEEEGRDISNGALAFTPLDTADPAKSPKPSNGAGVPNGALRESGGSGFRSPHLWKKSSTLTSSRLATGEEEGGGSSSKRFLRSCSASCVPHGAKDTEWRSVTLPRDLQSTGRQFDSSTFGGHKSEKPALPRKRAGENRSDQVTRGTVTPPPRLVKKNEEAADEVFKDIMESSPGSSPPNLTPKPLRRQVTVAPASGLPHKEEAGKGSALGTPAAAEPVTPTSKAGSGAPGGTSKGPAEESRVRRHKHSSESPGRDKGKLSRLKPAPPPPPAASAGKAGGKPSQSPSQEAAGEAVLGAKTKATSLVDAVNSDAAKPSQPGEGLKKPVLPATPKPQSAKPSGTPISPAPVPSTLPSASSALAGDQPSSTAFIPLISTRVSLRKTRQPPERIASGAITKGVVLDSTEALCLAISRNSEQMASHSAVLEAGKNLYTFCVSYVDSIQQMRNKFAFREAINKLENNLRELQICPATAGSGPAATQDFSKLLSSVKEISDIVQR

[5] = molecular target: T1, panel of more than 300 wild-type and mutant kinases (313 kinase panel) (Homo sapiens, UniProt Q9UL54); experiment: as above; conditions: kinase TAOK2; 1 μM
T1 sequence (Q9UL54 1-1235): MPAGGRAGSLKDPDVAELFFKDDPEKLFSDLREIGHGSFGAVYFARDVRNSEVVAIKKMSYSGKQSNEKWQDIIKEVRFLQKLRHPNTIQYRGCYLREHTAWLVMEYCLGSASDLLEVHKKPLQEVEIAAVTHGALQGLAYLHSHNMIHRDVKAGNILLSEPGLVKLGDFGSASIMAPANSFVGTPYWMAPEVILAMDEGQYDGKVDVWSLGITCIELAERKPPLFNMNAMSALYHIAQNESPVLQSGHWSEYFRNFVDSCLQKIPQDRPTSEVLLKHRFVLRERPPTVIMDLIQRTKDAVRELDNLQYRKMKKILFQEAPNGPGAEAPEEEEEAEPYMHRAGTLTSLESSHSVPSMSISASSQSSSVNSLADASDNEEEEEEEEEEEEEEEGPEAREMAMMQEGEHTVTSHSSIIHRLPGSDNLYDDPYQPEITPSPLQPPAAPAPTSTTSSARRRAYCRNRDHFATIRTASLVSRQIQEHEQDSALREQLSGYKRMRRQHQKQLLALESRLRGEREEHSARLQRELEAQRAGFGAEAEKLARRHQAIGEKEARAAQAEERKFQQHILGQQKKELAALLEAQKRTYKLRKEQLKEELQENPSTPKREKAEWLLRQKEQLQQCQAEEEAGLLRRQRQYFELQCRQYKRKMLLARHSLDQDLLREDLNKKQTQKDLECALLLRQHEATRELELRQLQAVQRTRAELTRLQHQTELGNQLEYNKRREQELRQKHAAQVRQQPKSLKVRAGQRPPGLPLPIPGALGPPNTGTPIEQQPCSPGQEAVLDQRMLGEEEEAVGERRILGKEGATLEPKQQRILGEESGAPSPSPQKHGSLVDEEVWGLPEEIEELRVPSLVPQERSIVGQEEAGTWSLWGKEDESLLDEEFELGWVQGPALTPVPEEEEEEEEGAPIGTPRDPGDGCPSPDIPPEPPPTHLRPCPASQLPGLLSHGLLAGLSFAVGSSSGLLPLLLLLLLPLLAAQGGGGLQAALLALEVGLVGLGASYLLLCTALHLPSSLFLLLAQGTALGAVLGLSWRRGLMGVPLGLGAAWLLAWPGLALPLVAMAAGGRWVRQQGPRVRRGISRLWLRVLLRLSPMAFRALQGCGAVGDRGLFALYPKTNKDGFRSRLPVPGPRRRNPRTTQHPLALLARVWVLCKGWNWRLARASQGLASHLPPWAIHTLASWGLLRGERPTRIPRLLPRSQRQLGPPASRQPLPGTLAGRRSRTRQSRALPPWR

[6] = molecular target: panel of more than 300 wild-type and mutant kinases (313 kinase panel) (Homo sapiens, UniProt P04049); experiment: as above; conditions: kinase RAF1; 1 μM
Sequence of panel of more than 300 wild-type and mutant kinases (313 kinase panel) (Homo sapiens, UniProt P04049) (P04049 whole entry, change not shown): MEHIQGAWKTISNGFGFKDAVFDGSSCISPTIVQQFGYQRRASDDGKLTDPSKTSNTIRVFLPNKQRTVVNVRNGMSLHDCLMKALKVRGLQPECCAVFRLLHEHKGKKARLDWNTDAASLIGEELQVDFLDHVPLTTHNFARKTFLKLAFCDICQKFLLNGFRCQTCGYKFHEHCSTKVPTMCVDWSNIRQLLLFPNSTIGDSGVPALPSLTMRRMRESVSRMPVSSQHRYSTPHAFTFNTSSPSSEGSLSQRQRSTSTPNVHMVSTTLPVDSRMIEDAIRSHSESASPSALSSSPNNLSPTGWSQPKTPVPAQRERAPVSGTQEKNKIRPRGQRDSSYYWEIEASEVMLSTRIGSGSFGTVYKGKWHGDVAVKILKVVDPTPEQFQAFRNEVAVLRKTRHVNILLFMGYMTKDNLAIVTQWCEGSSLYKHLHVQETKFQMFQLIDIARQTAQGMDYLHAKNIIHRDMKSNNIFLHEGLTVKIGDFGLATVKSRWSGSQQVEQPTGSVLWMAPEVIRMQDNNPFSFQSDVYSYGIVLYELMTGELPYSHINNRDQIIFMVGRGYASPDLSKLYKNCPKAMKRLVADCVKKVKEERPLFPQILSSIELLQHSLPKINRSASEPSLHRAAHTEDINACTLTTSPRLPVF

[7] = molecular target: panel of more than 300 wild-type and mutant kinases (313 kinase panel) (Homo sapiens, UniProt Q8N4C8); experiment: as above; conditions: kinase MINK; 1 μM
Sequence of panel of more than 300 wild-type and mutant kinases (313 kinase panel) (Homo sapiens, UniProt Q8N4C8) (Q8N4C8 whole entry, change not shown): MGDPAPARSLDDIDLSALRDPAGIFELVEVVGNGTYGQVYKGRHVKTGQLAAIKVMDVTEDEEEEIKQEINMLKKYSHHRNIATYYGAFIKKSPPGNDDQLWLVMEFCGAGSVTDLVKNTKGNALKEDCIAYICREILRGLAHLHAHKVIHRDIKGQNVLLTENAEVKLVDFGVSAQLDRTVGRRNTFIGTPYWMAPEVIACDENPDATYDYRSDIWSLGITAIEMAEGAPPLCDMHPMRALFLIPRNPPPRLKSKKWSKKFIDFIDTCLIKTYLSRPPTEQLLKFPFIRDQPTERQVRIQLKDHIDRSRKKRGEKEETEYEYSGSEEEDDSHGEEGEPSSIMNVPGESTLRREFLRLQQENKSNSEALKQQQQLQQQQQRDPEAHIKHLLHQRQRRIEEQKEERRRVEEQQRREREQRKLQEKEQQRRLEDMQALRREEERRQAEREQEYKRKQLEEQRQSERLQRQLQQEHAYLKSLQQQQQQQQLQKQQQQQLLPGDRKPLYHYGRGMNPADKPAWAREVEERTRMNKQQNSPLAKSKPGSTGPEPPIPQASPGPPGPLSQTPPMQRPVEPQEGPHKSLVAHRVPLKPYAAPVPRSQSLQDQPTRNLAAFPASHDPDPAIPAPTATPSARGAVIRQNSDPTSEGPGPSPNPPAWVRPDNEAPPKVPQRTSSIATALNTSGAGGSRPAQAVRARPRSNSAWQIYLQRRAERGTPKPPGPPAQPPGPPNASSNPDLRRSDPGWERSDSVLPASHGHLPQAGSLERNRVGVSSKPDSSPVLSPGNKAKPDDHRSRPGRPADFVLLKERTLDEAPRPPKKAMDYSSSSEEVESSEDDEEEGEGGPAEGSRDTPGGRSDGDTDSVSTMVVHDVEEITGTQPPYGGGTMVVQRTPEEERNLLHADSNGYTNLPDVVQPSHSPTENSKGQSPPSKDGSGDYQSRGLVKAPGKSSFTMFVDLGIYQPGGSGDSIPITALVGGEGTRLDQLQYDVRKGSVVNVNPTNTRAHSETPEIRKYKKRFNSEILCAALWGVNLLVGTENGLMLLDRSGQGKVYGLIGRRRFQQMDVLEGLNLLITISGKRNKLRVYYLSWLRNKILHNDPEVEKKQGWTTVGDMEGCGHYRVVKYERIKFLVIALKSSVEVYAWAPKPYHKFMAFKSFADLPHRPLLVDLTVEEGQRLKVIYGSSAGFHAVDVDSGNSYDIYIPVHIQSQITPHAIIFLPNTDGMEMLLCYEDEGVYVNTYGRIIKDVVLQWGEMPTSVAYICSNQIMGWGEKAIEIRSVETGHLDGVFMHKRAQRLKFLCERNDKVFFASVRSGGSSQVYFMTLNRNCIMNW

[8] = molecular target: panel of more than 300 wild-type and mutant kinases (313 kinase panel) (Homo sapiens, UniProt P22612); experiment: as above; conditions: kinase PKACγ; 1 μM
[9] = system: forty-four human cancer cell lines; experiment: Cell proliferation assay (ATPlite, 72 hours) in the 44 cell line Oncolines panel; assay type: cell-based; conditions: Homo sapiens

Compound: CCCS(=O)(=O)Nc1ccc(F)c(C(=O)c2c[nH]c3ncc(-c4ccc(Cl)cc4)cc23)c1F [vemurafenib]
- %-inhibition of NEK6 [1]: -1.43%
- %-inhibition of KIT(T670I) [2]: 5.29%
- %-inhibition of RON [3]: -2%
- %-inhibition, ABL(E255K) [4]: 2.49%
- %-inhibition of TAOK2 [5]: 5.35%
- %-inhibition of RAF1 [6]: 96%
- %-inhibition of MINK [7]: 10%
- %-inhibition of PKACγ [8]: -3%
- pIC50 ([9]; A 172, read-out: cell panel IC50, A-172): < 4.50
- pIC50 ([9]; A204, cell line A-204, read-out: cell panel IC50, A-204): < 4.50
- pIC50 ([9]; A498, read-out: cell panel IC50, A-498): 4.69
- pIC50 ([9]; A549, read-out: cell panel IC50, A-549): 4.53
- pIC50 ([9]; A-375, cell line A375, read-out: cell panel IC50, A375): 5.40
- pIC50 ([9]; A-427, read-out: cell panel IC50, A-427): < 4.50
- pIC50 ([9]; AU565, read-out: cell panel IC50, AU-565): < 4.50
- pIC50 ([9]; BT-549, read-out: cell panel IC50, BT-549): 4.57
- pIC50 ([9]; HCT-116, read-out: cell panel IC50, HCT-116): < 4.50
- pIC50 ([9]; K562, read-out: cell panel IC50, K-562): 4.52
- pIC50 ([9]; LS174T, read-out: cell panel IC50, LS 174T): < 4.50
- pIC50 ([9]; SHP77, cell line SHP-77, read-out: cell panel IC50, SHP-77): < 4.50
- pIC50 ([9]; SW-620, cell line SW620, read-out: cell panel IC50, SW620): 4.50
- pIC50 ([9]; U2OS, cell line U-2 OS, read-out: cell panel IC50, U-2 OS): < 4.50
- pIC50 ([9]; cell line J82, read-out: cell panel IC50, J82): < 4.50
- pIC50 ([9]; cell line PA-1, read-out: cell panel IC50, PA-1): 4.99
- pIC50 ([9]; cell line SJCRH30, read-out: cell panel IC50, SJCRH30): < 4.50
- pIC50 ([9]; cell line SR, read-out: cell panel IC50, SR): 5.05
- pIC50 ([9]; U-87 MG cell line, ATPlite, 72 hours, read-out: IC50 in cell proliferation assay (table S5 cellpanel data)): < 4.50
- pIC50 ([9]; cell line 769-P, read-out: cell panel IC50, 769-P): < 4.50
- pIC50 ([9]; cell line 786-0, read-out: cell panel IC50, 786-0): 4.65
- pIC50 ([9]; cell line ACHN, read-out: cell panel IC50, ACHN): 4.62
- pIC50 ([9]; cell line AN3 CA, read-out: cell panel IC50, AN3 CA): < 4.50
- pIC50 ([9]; cell line BT-20, read-out: cell panel IC50, BT-20): < 4.50
- pIC50 ([9]; cell line BxPC-3, read-out: cell panel IC50, BxPC-3): 4.85
- pIC50 ([9]; cell line C-33 A, read-out: cell panel IC50, C-33 A): < 4.50
- pIC50 ([9]; cell line CAL 27, read-out: cell panel IC50, CAL 27): < 4.50
- pIC50 ([9]; cell line CCRF-CEM, read-out: cell panel IC50, CCRF-CEM): 4.64
- pIC50 ([9]; cell line DLD-1, read-out: cell panel IC50, DLD-1): < 4.50
- pIC50 ([9]; cell line FaDu, read-out: cell panel IC50, FaDu): < 4.50
- pIC50 ([9]; cell line HCT-15, read-out: cell panel IC50, HCT-15): 4.51
- pIC50 ([9]; cell line Hs 578T, read-out: cell panel IC50, Hs 578T): 4.60
- pIC50 ([9]; cell line Jurkat E6.1, read-out: cell panel IC50, Jurkat E6.1): 4.57
- pIC50 ([9]; cell line LoVo, read-out: cell panel IC50, LoVo): 4.50
- pIC50 ([9]; cell line MG-63, read-out: cell panel IC50, MG-63): < 4.50
- pIC50 ([9]; cell line MOLT-4, read-out: cell panel IC50, MOLT-4): 4.51
- pIC50 ([9]; cell line MeWo, read-out: cell panel IC50, MeWo): < 4.50
- pIC50 ([9]; cell line NCI-H82, read-out: cell panel IC50, NCI-H82): 4.52
- pIC50 ([9]; cell line NCI-H460, read-out: cell panel IC50, NCI-H460): 4.52
- pIC50 ([9]; cell line OVCAR-3, read-out: cell panel IC50, OVCAR-3): < 4.50
- pIC50 ([9]; cell line RPMI-7951, read-out: cell panel IC50, RPMI-7951): 4.68
- pIC50 ([9]; cell line SK-N-AS, read-out: cell panel IC50, SK-N-AS): < 4.50
- pIC50 ([9]; cell line SW48, read-out: cell panel IC50, SW48): < 4.50
- pIC50 ([9]; cell line SW480, read-out: cell panel IC50, SW480): 4.65
